Columns and labels:
[1] = tested on: barley seedlings; test: plant assay: pigment neogenesis in etiolated barley seedlings; assay type: in vivo; details: barley seedlings subjected to fosmidomycin treatment, FIG. 8
Source text: Since this biosynthetic pathway is a metabolic pathway which is exclusively located in the chloroplasts, it offers optimal target enzymes for the development of inhibitors. Since, according to current knowledge, no enzyme which is identical with, or similar to, Arabidopsis thaliana DXPRI is present in other higher organisms, it can be assumed that inhibitors should have a very specific action on plants. The site of action of an inhibitor, namely fosmidomycin (3-(N-formyl-N-hydroxyamino)propylphosphonic acid; Fujisawa Pharmaceutical Co.) was identified as being a DXPRI. […] The following abbreviations were used in FIG. 7: DOX=1-deoxy-D-xylulose, ME=methylerythritol. The same action is found in a plant assay in which barley seedlings are subjected to fosmidomycin treatment and then examined for their chlorophyll and carotenoid content.
FIG. 8. Effect of fosmidomycin on pigment neogenesis in etiolated barley seedlings.

[2] = tested on: Arabidopsis thaliana DXPRI; test: DXPRI enzyme test (heterologously expressed in E. coli, TLC/autoradiography of 14C product); assay type: biochemical
Method: The transgenic strain was incubated in the growth medium “2×YT” (per 1 l: Bacto-tryptone 16 g, yeast extract 10 g, NaCl 5 g). The cells were grown at 37° C. to an OD560 nm of 0.6. After IPTG (1 MM) had been added, they were cultured for a further 10 minutes at 37° C. and then for a further 4 hours at 22° until they were harvested. The cells were centrifuged off and washed in 1% NaCl. After the cells had been disrupted (50 to 500 ml of cell culture (OD560 nm of 1.0) by means of a French press, a crude protein extract was used for enzyme tests (in 4 ml of extraction buffer (Tris/HCl (pH 7.5) 100 mM, MgCl2 5 mM, DTT 2 mM, PMSF 0.1 mM). For storage, the crude extracts together with 20% of glycerol were frozen at −20° C.
For the enzyme test, 15 μl (diluted to 1 to 7 mg of protein/ml) of protein extract were incubated for 30 minutes at 30° C. with MnCl2 (1 mM), NaF (5 mM), NADPH2 (0.5 mM) and ^14C-1-deoxy-D-xylulose-5-phosphate (0.25 mM, 3 kBq). The reaction was stopped at 100° C. (30 seconds) by adding CaCl2 (to 100 mM) and alkaline phosphatase (0.5 units). The product was dephosphorylated for 2 hours at 30° C. Detection was carried out by subjecting the product to separation by thin-layer chromatography on silica gel 60 (Merck) with acetone/ethyl acetate/water (50+50+2) with subsequent evaluation by Instant Imager. […]

[3] = tested on: mevalonate formation; details: cited from earlier work

Row | Compound | carotenoid content [1] | chlorophyll content [1] | inhibition of the enzymatic activity of DXPRI ([2]; biochemical assay, FIG. 7) | formation of ME (methylerythritol) ([2]; fosmidomycin at various concentrations, crude protein extract, 14C-1-deoxy-D-xylulose-5-phosphate substrate) | sterol biosynthesis in the cytoplasma ([3]; cytoplasma) | prenyl lipid formation in the plastids ([3]; plastids)
1 | O=CN(O)CCCP(=O)(O)O [fosmidomycin, 3-(N-formyl-N-hydroxyamino)propylphosphonic acid] | greatly reduced | greatly reduced | efficient inhibition | inhibited efficiently | – | –
2 | mevinolin | – | – | – | – | inhibition | remains unaffected

Source: patent US6765129B1, “Overexpression of a DNA sequence coding for a 1-desoxy-d-xylulose-5-phosphate reductoisomerase in plants” (BASF Aktiengesellschaft, priority 1999, dated 2004)
